Measurements taken from publication PMC10279920, “Single-molecule visualization of Pif1 helicase translocation on single-stranded DNA” (The Journal of Biological Chemistry, 2023).
Changes are numbered by the printed parent chain.

How the values were obtained:
Test in all cases: ATP hydrolysis, [γ-32P]-ATP TLC, Michaelis-Menten fit
Format in all cases: biochemical
Conditions in all cases: M13 ssDNA 1.5 μM nt, 10 nM Pif1, 5 mM MgCl2, 60 mM KCl, pH 7.5, 30 °C, no RPA; labelled compound as tracer
[1] = molecular target: T1, Pif1 (unlabeled, WT Pif1) (Saccharomyces cerevisiae, UniProt P07271)
T1 construct: nuclear isoform residues 40-859, pRSF-Duet-1, E. coli Rosetta2(DE3), Ni-NTA purified (tag not described), no GFP
T1 sequence (P07271 40-859): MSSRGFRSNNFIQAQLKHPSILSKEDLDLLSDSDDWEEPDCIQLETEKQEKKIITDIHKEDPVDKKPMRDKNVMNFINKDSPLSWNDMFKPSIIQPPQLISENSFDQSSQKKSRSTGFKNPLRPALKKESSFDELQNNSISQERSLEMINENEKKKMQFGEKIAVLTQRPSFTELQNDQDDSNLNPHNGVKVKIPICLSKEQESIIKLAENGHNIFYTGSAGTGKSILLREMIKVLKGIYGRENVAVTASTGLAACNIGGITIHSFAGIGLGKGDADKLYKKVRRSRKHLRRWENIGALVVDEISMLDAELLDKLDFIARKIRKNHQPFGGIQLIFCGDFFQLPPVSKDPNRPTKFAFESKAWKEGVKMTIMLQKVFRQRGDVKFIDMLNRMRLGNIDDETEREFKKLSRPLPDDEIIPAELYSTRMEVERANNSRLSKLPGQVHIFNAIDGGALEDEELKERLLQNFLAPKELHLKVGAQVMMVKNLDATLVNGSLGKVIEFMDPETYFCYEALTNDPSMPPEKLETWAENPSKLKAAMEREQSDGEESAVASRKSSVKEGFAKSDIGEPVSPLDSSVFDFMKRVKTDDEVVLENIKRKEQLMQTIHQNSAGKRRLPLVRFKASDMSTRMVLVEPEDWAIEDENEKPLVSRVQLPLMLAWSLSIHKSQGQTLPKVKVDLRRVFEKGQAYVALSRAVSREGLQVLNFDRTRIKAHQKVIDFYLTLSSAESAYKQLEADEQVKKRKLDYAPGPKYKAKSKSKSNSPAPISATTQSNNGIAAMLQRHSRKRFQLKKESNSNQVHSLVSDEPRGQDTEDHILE
Experimental: ATP hydrolysis, [γ-32P]-ATP TLC, Michaelis-Menten fit on Pif1 (unlabeled, WT Pif1) | Values for Vmax, Km, and kcat were determined and compared to WT Pif1

[2] = molecular target: T2, GFP-Pif1 (Saccharomyces cerevisiae, UniProt P07271, V385A)
T2 construct: N-terminal superfolder GFP fusion of nuclear isoform residues 40-859, pRSF-Duet-1, E. coli Rosetta2(DE3), Ni-NTA purified
T2 sequence (P07271 40-859 V385A): T1 sequence (P07271 40-859) with V346A

[3] = molecular target: T3, GFP-Pif1 (Saccharomyces cerevisiae, UniProt P07271, H705A)
T3 construct: N-terminal superfolder GFP fusion of nuclear isoform residues 40-859, pRSF-Duet-1, E. coli Rosetta2(DE3), Ni-NTA purified
T3 sequence (P07271 40-859 H705A): T1 sequence (P07271 40-859) with H666A

Km [1]: 490 ± 370 µM | Km [2]: 1280 ± 540 µM | Km [3]: 1210 µM
SMILES: Nc1ncnc2c1ncn2[C@@H]1O[C@H](COP(=O)(O)OP(=O)(O)OP(=O)(O)O)[C@@H](O)[C@H]1O [ATP]
